According to article PMC4232785, “RP-HPTLC Retention Data in Correlation with the In-silico ADME Properties of a Series of s-triazine Derivatives” (Iranian Journal of Pharmaceutical Research : IJPR, 2014):

Test: RP-HPTLC retention (RM0, lipophilicity parameter) on RP-18W/UV254 plates
Type: physicochemical
Method: Precoated RP-18W/UV254 plates (Macherey-Nagel GmbH and Co., Düren, Germany) were used for RP HPTLC analysis. Investigated solvent mixtures used as mobile phases: acetone-water (φ = 0.5 - 0.8; v/v), acetonitrile-water (φ = 0.5 - 0.9; v/v), methanol-water (φ = 0.65 - 0.95; v/v), 2-propanol-water (φ = 0.4 - 0.7; v/v), tetrahydrofuran-water (φ = 0.5 - 0.75; v/v).
The investigated compounds were dissolved in an appropriate solvent, methanol, 1 mg mL^-1) and the solutions (0.2 μL) were separately spotted into the plates. All the reagents used were of analytical purity. The plates were developed by the ascending technique at room temperature without previous saturation of the chamber with mobile phase. All measurements were carried out at ambient temperature. After drying of the plates, the spots were visualized under UV light at λ = 254 nm. RF values were calculated as average from three measurements for each solute-mobile phase combination. For subsequent calculations mean RM values were used; these were calculated by using the formula:
Equation (1) RM=log(1/RF-1)
The calculated RM values for different concentrations of organic solvent were used to check the linearity of their relationship with the volume fraction of organic modifier according to the equation ([23]):
Where φ is the volume fraction of organic solvent in the mobile phase, RM^0 is the intercept obtained by extrapolation to φ = 0% of modifier, and S is the slope of the linear plot. Equations (1) and (2) served for deriving data for further QSAR studies.

[1] = RP-18W/UV254, 2-propanol – water (φ = 0.4 - 0.7)
[2] = RP-18W/UV254, acetone – water (φ = 0.5 - 0.8)
[3] = RP-18W/UV254, acetonitrile – water (φ = 0.5 - 0.9)
[4] = RP-18W/UV254, methanol – water (φ = 0.65 - 0.95)
[5] = RP-18W/UV254, tetrahydrofuran - water (φ = 0.5 - 0.75)

| Structure (SMILES) | RM^0 (retention parameter, intercept at φ = 0% modifier) [1] | RM^0 (retention parameter, intercept at φ = 0% modifier) [2] | RM^0 (retention parameter, intercept at φ = 0% modifier) [3] | RM^0 (retention parameter, intercept at φ = 0% modifier) [4] | RM^0 (retention parameter, intercept at φ = 0% modifier) [5] |
| --- | --- | --- | --- | --- | --- |
| CC(Nc1nc(Cl)nc(NC(C)c2ccc(Cl)cc2)n1)c1ccc(Cl)cc1 (centres unmarked) [I.3] | 2.617 | 3.839 | 2.887 | 3.976 | 3.538 |
| Cc1ccc(C(C)Nc2nc(Cl)nc(NC(C)c3ccc(C)cc3)n2)cc1 (centres unmarked) [I.2] | 2.525 | 3.580 | 2.786 | 3.188 | 3.567 |
| CC1(Nc2nc(Cl)nc(NC3(C)CCCCC3)n2)CCCCC1 [II.2] | 2.384 | 3.935 | 2.753 | 3.320 | 3.401 |
| CC1(Nc2nc(Cl)nc(NC3(C)CCCCCC3)n2)CCCCCC1 [II.3] | 3.013 | 4.218 | 3.000 | 4.530 | 4.071 |
| CC(Nc1nc(Cl)nc(NC(C)c2ccc(Br)cc2)n1)c1ccc(Br)cc1 (centres unmarked) [I.4] | 2.764 | 4.303 | 2.896 | 4.407 | 3.351 |
| CC(Nc1nc(Cl)nc(NC(C)c2ccccc2)n1)c1ccccc1 (centres unmarked) [I.1] | 1.900 | 3.185 | 2.110 | 2.457 | 3.439 |
| CC1(Nc2nc(Cl)nc(NC3(C)CCCC3)n2)CCCC1 [II.1] | 2.183 | 3.743 | 2.388 | 3.181 | 3.289 |

Continued, values first:

| RM^0 (retention parameter, intercept at φ = 0% modifier) [1] | RM^0 (retention parameter, intercept at φ = 0% modifier) [2] | RM^0 (retention parameter, intercept at φ = 0% modifier) [3] | RM^0 (retention parameter, intercept at φ = 0% modifier) [4] | RM^0 (retention parameter, intercept at φ = 0% modifier) [5] | Structure (SMILES) |
| --- | --- | --- | --- | --- | --- |
| 2.769 | 4.626 | 3.284 | 3.998 | 3.611 | CN(c1nc(Cl)nc(N(C)C2CCCCC2)n1)C1CCCCC1 [III.2] |
| 2.251 | 4.118 | 2.356 | 3.440 | 3.426 | Clc1nc(NC2CCCCC2)nc(NC2CCCCC2)n1 [III.1] |
| 1.118 | 1.672 | 1.497 | 1.526 | 1.733 | CC1(Nc2nc(Cl)nc(Cl)n2)CCCC1 [IV.1] |
| 1.779 | 2.257 | 1.956 | 1.756 | 2.222 | CC1(Nc2nc(Cl)nc(Cl)n2)CCCCCC1 [IV.3] |
| 2.747 | 4.693 | 3.556 | 5.295 | 3.902 | Clc1nc(N(c2ccccc2)C2CCCCC2)nc(N(c2ccccc2)C2CCCCC2)n1 [III.4] |
| 2.691 | 4.019 | 3.101 | 3.980 | 3.387 | Clc1nc(NC2CCCCC2)nc(N(c2ccccc2)C2CCCCC2)n1 [III.3] |
